Tested on: cancer-related miRNAs
Experiment: miRNA expression microarray (SurePrint G3 Human miRNA Microarray Rel.16.0)
Conditions: logarithmic (log2) value of quotient vs control
Protocol: Total RNA was prepared from each of six induced malignant stem cells, one induced non-malignant stem cell, and one induced pluripotent stem cell as mentioned above, and the prepared total RNAs were used in Agilent SurePrint G3 Human miRNA Microarray Rel.16.0 to detect abnormal expression (increased or reduced/lost expression) of non-coding RNAs such as endogenous cancer-related microRNAs in the induced malignant stem cells.
Complete Labeling Reagent and Hyb Kit in accordance with the Agilent protocol. To be specific, each sample total RNA (100 ng) was dephosphorylated with Calf Intestine Alkaline Phosphatase (CIP), and the RNA molecule on its 3′ terminal side was labeled with a cyanine 3-cytidine bisphosphate (pCp-Cy3) molecule using T4 RNA Ligase.
The RNA samples labeled in (14-2-3) were hybridized with SurePrint G3 Human miRNA Microarray Rel.16.0 using Agilent miRNA Complete Labeling Reagent and Hyb Kit. To be specific, each of the labeled RNAs was added to a hybridization buffer and allowed to hybridize on SurePrint G3 Human miRNA Microarray Rel.16.0 for 20 hours. After washing, the DNA microarray image was scanned by Agilent Microarray Scanner, and fluorescence signals from the spots were digitized by Feature Extraction Software (v.10.7.3.1).
The miRNAs were annotated using miRBase Release 18, and hybridization was performed onto a microarray chip with the probes designed for the miRNAs shown in the following table (refer to Table 31 below).
In this analysis, the normalized value of the digital data for the hybridization of a subject cell (induced malignant stem cell) sample was divided by the normalized value from the digital data for the hybridization of a control cell sample and the quotient was used as a measure of variation in expression. Probes for which the quotients deviated from 1 (i.e., log21=0) were considered to indicate a variation in expression; those showing quotients greater than 2 (log22=1) or smaller than 0.5 (log20.5=−1) were selected. For each of the comparisons shown below, the genes shown in the tyrosine kinase list and those shown in the cancer drug targets list were analyzed to make respective lists of the genes showing quotients greater than 2 (log22=1) or smaller than 0.5 (log20.5=−1), as compared with the quotient for the control (taken as 1). The analysis was performed using GeneSpring 12.1.
The Normalized column represents a variation in expression in logarithmic values.

| Substance | Normalized (variation in microRNA expression, subject cell / control cell) ([Ngc1_7]vs [Nib2_17]) | Normalized (variation in microRNA expression, subject cell / control cell) ([cc4_c]vs [Nfb2_17]) | Normalized (variation in microRNA expression, subject cell / control cell) ([gc1_6]vs [Ngc1_7]) | Normalized (variation in microRNA expression, subject cell / control cell) ([gc2_5]vs [Nfb2_17]) | Normalized (variation in microRNA expression, subject cell / control cell) ([gcl_6]vs [Nfb2_17]) | Normalized (variation in microRNA expression, subject cell / control cell) ([gc2_1]vs [Nfb2_17]) | Normalized (variation in microRNA expression, subject cell / control cell) ([gc2_10]vs +Nfb2_17]) |
| --- | --- | --- | --- | --- | --- | --- | --- |
| hsa-miR-23b-3p (GGTAATCCCTGGCAATG; chemistry not given here) | 1.154 | 3.268 | −1.014 |  |  |  |  |
| hsa-miR-210 (TCAGCCGCTGTCACAC; chemistry not given here) | 1.643 | 3.796 |  | −1.628 | 2.036 |  |  |
| hsa-miR-20a-5p (CTACCTGCACTATAAGCAC; chemistry not given here) |  |  |  | −4.951 |  | −4.784 | −5.12 |
| hsa-let-7g-5p (AACTGTACAAACTACTACCTC; chemistry not given here) |  |  | −1.935 |  |  |  |  |
| hsa-miR-183-5p (AGTGAATTCTACCAGTGCCA; chemistry not given here) |  | 1.285 |  |  |  |  | −1.886 |
| hsa-1et-7c (AACCATACAACCTACTACC; chemistry not given here) |  | 4.789 |  |  |  |  |  |
| hsa-miR-27b-3p (GCAGAACTTAGCCACTGT; chemistry not given here) |  | 2.569 |  |  |  | −2.575 | −2.297 |
| hsa-miR-205-5p (CAGACTCCGGTGGAAT; chemistry not given here) | −1.315 |  |  | −2.341 |  | −1.577 | −2.908 |
| hsa-let-7b-5p (AACCACACAACCTACTACC; chemistry not given here) |  |  | −1.937 |  |  |  |  |
| hsa-let-7a-5p (AACTATACAACCTACTACCT; chemistry not given here) | 1.941 | 5.026 | −1.09 | −1.334 |  | −1.233 |  |
| hsa-miR-16-5p (CGCCAATATTTACGTGCTG; chemistry not given here) |  |  |  | −4.816 |  | −5.228 | −4.956 |
| hsa-miR-25-3p (TCAGACCGAGACAAGTGC; chemistry not given here) |  |  |  | −1.478 |  | −1.899 | −1.515 |
| hsa-miR-222-3p (ACCCAGTAGCCAG; chemistry not given here) |  | 1.861 |  |  |  |  |  |
| hsa-miR-27a-3p (GCGGAACTTAGCCACTG; chemistry not given here) | 1.084 | 3.755 | −1.047 |  |  |  |  |
| hsa-miR-34a-5p (ACAACCAGCTAAGACACTGC; chemistry not given here) |  |  |  | −2.833 |  | −2.608 | −2.706 |
| hsa-miR-200c-3p (TCCATCATTACCCGG; chemistry not given here) | 1.59 | 4.536 |  |  | 2.005 | −1.393 | −1.715 |
| hsa-miR-130a-3p (ATGCCCTTTTAACATTGCA; chemistry not given here) |  | −4.732 |  | −5.014 |  | −5.267 | −5.029 |

| Substance | Normalized (variation in microRNA expression, subject cell / control cell) ([Ngc1_7]vs [Nib2_17]) | Normalized (variation in microRNA expression, subject cell / control cell) ([cc4_c]vs [Nfb2_17]) | Normalized (variation in microRNA expression, subject cell / control cell) ([gc1_6]vs [Ngc1_7]) | Normalized (variation in microRNA expression, subject cell / control cell) ([gc2_5]vs [Nfb2_17]) | Normalized (variation in microRNA expression, subject cell / control cell) ([gcl_6]vs [Nfb2_17]) | Normalized (variation in microRNA expression, subject cell / control cell) ([gc2_1]vs [Nfb2_17]) | Normalized (variation in microRNA expression, subject cell / control cell) ([gc2_10]vs +Nfb2_17]) |
| --- | --- | --- | --- | --- | --- | --- | --- |
| hsa-miR-7-5p (ACAACAAAATCACTAGTCTTCC; chemistry not given here) |  | 2.213 |  |  |  |  |  |
| hsa-miR-373-3p (ACACCCCAAAATCGAAGC; chemistry not given here) | −2.818 |  | 1.725 | −2.93 | −1.094 |  | −3.202 |
| hsa-miR-193b-3p (AGCGGGACTTTGAGGG; chemistry not given here) |  |  |  |  |  |  | 1.098 |
| hSA-lEt-7f-5p (AACTATACAATCTACTACCTC; chemistry not given here) | 2.259 |  |  |  |  |  |  |
| hsa-miR-34c-5p (GCAATCAGCTAACTACACTG; chemistry not given here) |  | 1.308 |  |  |  |  |  |
| hsa-let-7e-5p (AACTATACAACCTCCTACC; chemistry not given here) | 3.356 | 4.793 | −2.684 |  |  | 1.601 | 2.18 |
| hsa-miR-125a-5p (TCACAGGTTAAAGGGTCTC; chemistry not given here) |  | 1.809 | −1.373 | −1.149 |  |  |  |
| hsa-miR-18a-5p (CTATCTGCACTAGATGCA; chemistry not given here) |  | −1.44 |  |  |  |  |  |
| hsa-miR-134 (CCCCTCTGGTCAA; chemistry not given here) | 2.736 |  |  | 1.299 | 2.883 | 1.853 | 2.829 |
| hsa_miR-301a-3p (GCTTTGACAATACTATTGCAC; chemistry not given here) |  | −1.212 |  |  |  |  |  |
| hsa-miR-125b-5p (TCACAAGTTAGGGTCTC; chemistry not given here) | 1.982 | 2.946 | −1.393 | −2.411 |  | −1.425 |  |
| hsa-miR-I7-5p (CTACCTGCACTGTAAGC; chemistry not given here) |  |  |  |  |  |  | −3.619 |
| hsa-miR-20b-5p (CTACCTGCACTATGAGCAC; chemistry not given here) |  | −3.293 |  | −3.269 |  | −3.152 | −3.502 |
| hsa-miR-29b-3p (AACACTGATTTCAAATGGTGC; chemistry not given here) |  | 4.488 |  |  |  |  |  |
| hsa-miR-96-5p (AGCAAAAATGTGCTAGTGCCAA; chemistry not given here) |  | 1.093 |  |  |  |  |  |
| hsa-miR-29a-3p (TAACCGATTTCAGATGGTGC; chemistry not given here) |  | 3.972 |  |  |  |  | −3.561 |
| hsa-miR-124-3p (GGCATTCACCGCGTGC; chemistry not given here) | 1.242 |  |  |  | 1.88 |  |  |
